Results published in the supplement of paper PMC10307832.

Experiments:
Experiment in all cases: relative viability (nuclei count vs DMSO), 5 days (fraction); higher = more cells survive
NCI-H2347 = test system: NCI-H2347
Method in brief: (§1)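 Five library-drug doses in √10 steps were combined with a fixed anchor-drug dose, or a single drug was given alone, by pin tool to lung cancer cell lines in 1536-well plates the day after seeding. Nuclei were stained and counted after 5 days. Relative viability is the nuclei count in treated wells over that in vehicle wells, taken as the median of duplicate plates.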

LK-2 = test system: LK-2
Method in brief: as §1

NCI-H650 = test system: NCI-H650
Method in brief: as §1

ChaGo-K-1 = test system: ChaGo-K-1
Method in brief: as §1

NCI-H358 = test system: NCI-H358
Method in brief: as §1

NCI-H1944 = test system: NCI-H1944
Method in brief: as §1

SW 900 = test system: SW 900
Method in brief: as §1

NCI-H520 = test system: NCI-H520
Method in brief: as §1

SW 1573 = test system: SW 1573
Method in brief: as §1

NCI-H3122 = test system: NCI-H3122
Method in brief: as §1

NCI-H460 = test system: NCI-H460
Method in brief: as §1

NCI-H1755 = test system: NCI-H1755
Method in brief: as §1

NCI-H1666 = test system: NCI-H1666
Method in brief: as §1

NCI-H441 = test system: NCI-H441
Method in brief: as §1

A-427 = test system: A-427
Method in brief: as §1

H3255 = test system: H3255
Method in brief: as §1

NCI-H2085 = test system: NCI-H2085
Method in brief: as §1

NCI-H1734 = test system: NCI-H1734
Method in brief: as §1

NCI-H596 = test system: NCI-H596
Method in brief: as §1

NCI-H322M = test system: NCI-H322M
Method in brief: as §1

NCI-H1650 = test system: NCI-H1650
Method in brief: as §1

NCI-H1355 = test system: NCI-H1355
Method in brief: as §1

NCI-H838 = test system: NCI-H838
Method in brief: as §1

EKVX = test system: EKVX
Method in brief: as §1

NCI-H2228 = test system: NCI-H2228
Method in brief: as §1

CCCCCCCCCCCC1=C(O)C(=O)C=C(O)C1=O [Embelin] + N=C(N)NC(=N)NCCc1ccccc1 [Phenformin] (partner 250 µM)
relative viability (NCI-H2347; first compound 0.08 µM): 0.308
relative viability (NCI-H2347; first compound 0.8 µM): 0.386
relative viability (NCI-H2347; first compound 2.53 µM): 0.345
relative viability (NCI-H2347; first compound 8 µM): 0.377
relative viability (LK-2; first compound 0.08 µM): 0.626
relative viability (LK-2; first compound 0.8 µM): 0.278
relative viability (LK-2; first compound 2.53 µM): 0.735
relative viability (LK-2; first compound 8 µM): 0.26
relative viability (NCI-H650; first compound 0.08 µM): 0.436
relative viability (NCI-H650; first compound 0.8 µM): 0.524
relative viability (NCI-H650; first compound 2.53 µM): 0.312
relative viability (NCI-H650; first compound 8 µM): 0.44
relative viability (ChaGo-K-1; first compound 0.08 µM): 0.547
relative viability (ChaGo-K-1; first compound 0.8 µM): 0.503
relative viability (ChaGo-K-1; first compound 2.53 µM): 0.586
relative viability (ChaGo-K-1; first compound 8 µM): 0.482
relative viability (NCI-H358; first compound 0.08 µM): 0.322
relative viability (NCI-H358; first compound 0.8 µM): 0.398
relative viability (NCI-H358; first compound 2.53 µM): 0.468
relative viability (NCI-H358; first compound 8 µM): 0.36
relative viability (NCI-H1944; first compound 0.08 µM): 0.196
relative viability (NCI-H1944; first compound 0.8 µM): 0.237
relative viability (NCI-H1944; first compound 2.53 µM): 0.203
relative viability (NCI-H1944; first compound 8 µM): 0.202
relative viability (SW 900; first compound 0.08 µM): 0.778
relative viability (SW 900; first compound 0.8 µM): 0.733
relative viability (SW 900; first compound 2.53 µM): 0.655
relative viability (SW 900; first compound 8 µM): 0.481
relative viability (NCI-H520; first compound 0.08 µM): 0.632
relative viability (NCI-H520; first compound 0.8 µM): 0.352
relative viability (NCI-H520; first compound 2.53 µM): 0.742
relative viability (NCI-H520; first compound 8 µM): 0.338
relative viability (SW 1573; first compound 0.08 µM): 0.433
relative viability (SW 1573; first compound 0.8 µM): 0.366
relative viability (SW 1573; first compound 2.53 µM): 0.479
relative viability (SW 1573; first compound 8 µM): 0.376
relative viability (NCI-H3122; first compound 0.08 µM): 0.388
relative viability (NCI-H3122; first compound 0.8 µM): 0.415
relative viability (NCI-H3122; first compound 2.53 µM): 0.384
relative viability (NCI-H3122; first compound 8 µM): 0.282
relative viability (NCI-H460; first compound 0.08 µM): 0.535
relative viability (NCI-H460; first compound 0.8 µM): 0.595
relative viability (NCI-H460; first compound 2.53 µM): 0.66
relative viability (NCI-H460; first compound 8 µM): 0.256
relative viability (NCI-H1755; first compound 0.08 µM): 0.646
relative viability (NCI-H1755; first compound 0.8 µM): 0.656
relative viability (NCI-H1755; first compound 2.53 µM): 0.608
relative viability (NCI-H1755; first compound 8 µM): 0.6
relative viability (NCI-H1666; first compound 0.08 µM): 0.57
relative viability (NCI-H1666; first compound 0.8 µM): 0.631
relative viability (NCI-H1666; first compound 2.53 µM): 0.507
relative viability (NCI-H1666; first compound 8 µM): 0.575
relative viability (NCI-H441; first compound 0.08 µM): 0.698
relative viability (NCI-H441; first compound 0.8 µM): 0.897
relative viability (NCI-H441; first compound 2.53 µM): 0.957
relative viability (NCI-H441; first compound 8 µM): 0.982
relative viability (A-427; first compound 0.08 µM): 0.359
relative viability (A-427; first compound 0.8 µM): 0.411
relative viability (A-427; first compound 2.53 µM): 0.328
relative viability (A-427; first compound 8 µM): 0.363
relative viability (H3255; first compound 0.08 µM): 0.374
relative viability (H3255; first compound 0.8 µM): 0.326
relative viability (H3255; first compound 2.53 µM): 0.324
relative viability (H3255; first compound 8 µM): 0.362
relative viability (NCI-H2085; first compound 0.08 µM): 0.708
relative viability (NCI-H2085; first compound 0.8 µM): 0.884
relative viability (NCI-H2085; first compound 2.53 µM): 0.73
relative viability (NCI-H2085; first compound 8 µM): 0.664
relative viability (NCI-H1734; first compound 0.08 µM): 0.383
relative viability (NCI-H1734; first compound 0.8 µM): 0.521
relative viability (NCI-H1734; first compound 2.53 µM): 0.526
relative viability (NCI-H1734; first compound 8 µM): 0.327
relative viability (NCI-H596; first compound 0.08 µM): 0.743
relative viability (NCI-H596; first compound 0.8 µM): 0.744
relative viability (NCI-H596; first compound 2.53 µM): 1.03
relative viability (NCI-H596; first compound 8 µM): 0.582
relative viability (NCI-H322M; first compound 0.08 µM): 0.757
relative viability (NCI-H322M; first compound 0.8 µM): 0.8
relative viability (NCI-H322M; first compound 2.53 µM): 0.913
relative viability (NCI-H322M; first compound 8 µM): 0.677
relative viability (NCI-H1650; first compound 0.08 µM): 0.434
relative viability (NCI-H1650; first compound 0.8 µM): 0.558
relative viability (NCI-H1650; first compound 2.53 µM): 0.485
relative viability (NCI-H1650; first compound 8 µM): 0.376
relative viability (NCI-H1355; first compound 0.08 µM): 0.482
relative viability (NCI-H1355; first compound 0.8 µM): 0.535
relative viability (NCI-H1355; first compound 2.53 µM): 0.442
relative viability (NCI-H1355; first compound 8 µM): 0.392
relative viability (NCI-H838; first compound 0.08 µM): 0.641
relative viability (NCI-H838; first compound 0.8 µM): 0.879
relative viability (NCI-H838; first compound 2.53 µM): 0.543
relative viability (NCI-H838; first compound 8 µM): 0.516
relative viability (EKVX; first compound 0.08 µM): 0.245
relative viability (EKVX; first compound 0.8 µM): 0.229
relative viability (EKVX; first compound 2.53 µM): 0.205
relative viability (EKVX; first compound 8 µM): 0.247
relative viability (NCI-H2228; first compound 0.08 µM): 0.332
relative viability (NCI-H2228; first compound 0.8 µM): 0.314
relative viability (NCI-H2228; first compound 2.53 µM): 0.403
relative viability (NCI-H2228; first compound 8 µM): 0.309
